Experimental data: patent US20260137819A1 (Radionetics Oncology, Inc., priority 2022, published 2026)

Target: T1, human follicle-stimulating hormone receptor (FSHR) (Homo sapiens, UniProt P23945)
T1 construct: host or cells: CHO-K1
T1 sequence (P23945 18-695): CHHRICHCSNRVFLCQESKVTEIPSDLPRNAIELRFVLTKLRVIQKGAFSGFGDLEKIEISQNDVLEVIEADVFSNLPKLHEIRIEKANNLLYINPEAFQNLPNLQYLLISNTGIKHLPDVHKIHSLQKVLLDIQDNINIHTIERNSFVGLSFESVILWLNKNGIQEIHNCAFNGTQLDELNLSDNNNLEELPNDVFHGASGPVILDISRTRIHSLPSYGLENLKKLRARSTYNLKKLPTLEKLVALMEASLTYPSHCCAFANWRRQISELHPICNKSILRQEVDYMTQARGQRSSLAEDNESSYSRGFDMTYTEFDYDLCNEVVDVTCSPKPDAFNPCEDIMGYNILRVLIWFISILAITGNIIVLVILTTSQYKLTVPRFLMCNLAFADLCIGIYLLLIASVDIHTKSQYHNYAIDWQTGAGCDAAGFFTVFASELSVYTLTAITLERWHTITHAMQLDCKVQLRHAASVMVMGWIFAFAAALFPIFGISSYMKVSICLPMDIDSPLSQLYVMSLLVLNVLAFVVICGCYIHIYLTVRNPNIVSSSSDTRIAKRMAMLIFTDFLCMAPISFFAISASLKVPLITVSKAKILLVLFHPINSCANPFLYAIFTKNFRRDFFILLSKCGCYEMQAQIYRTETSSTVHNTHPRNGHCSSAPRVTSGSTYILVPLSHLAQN
Test: Measurement of agonist cAMP production by activation of human FSHR
Assay type: cell-based
Details: CHO-K1 human FSHR cells, 30 minutes at 37° C., HTRF cAMP kit; read-out: hFSHR Agonist cAMP EC50
Method: Measurement of agonist cAMP production by activation of human FSHR
Two days prior to the assay, 5,000 CHO—K1 human FSHR cells (Eurofins #95-0119C2) stably expressing the functional human follicle-stimulating hormone receptor were plated in a 96-well tissue culture-treated plate in growth media supplemented with the appropriate selection agent. […] The cells were incubated for 30 minutes at 37° C. (the final concentrations of the compound ranged from 0-10,000 nM). After the 30-minute incubation at 37° C., lysis buffer (HRTF CAMP kit, Cisbio #62AM5PEB)w as added directly to the cells and incubated for 30-minutes at room temperature. The diluted lysate was transferred and CAMP detection and visualization antibodies (HRTF CAMP kit, Cisbio #62AM5PEB) were added and incubated for 1-24 hours at room temperature. The time-resolved fluorescent signal was read with a Tecan M1000Pro (Tecan) multiplate reader. The intracellular cAMP concentrations were calculated by regression to a standard curve and were plotted vs. the concentration of the agonists. The concentration of test compound or FSH required to generate a half maximal response EC50 were calculated using standard curve-fitting methods. All data manipulations were performed using GraphPad Prism v9.3.1 (GraphPad, San Diego, CA).

Structure (SMILES)	EC50 [nM]
COc1cc2c(cc1-c1cccc(NC(=O)NCCNC(=O)[C@H](N)CCCCNC(=O)CN3CCN(CC(=O)O)CCN(CC(=O)O)CCN(CC(=O)O)CC3)c1)-c1c(c(C(=O)N3CCOCC3(C)C)nn1-c1cc(Cl)cc(Cl)c1)CO2 [Compound 23A, indium (III) (R)-2,2′,2″-(10-(2-((5-amino-6-((2-(3-(3-(1-(3,5-dichlorophenyl)-3-(3,3-dimethylmorpholine-4-carbonyl)-7-methoxy-1,4-dihydrochromeno[4,3-c]pyrazol-8-yl)phenyl)ureido)ethyl)amino)-6-oxohexyl)amino)-2-oxoethyl)-1,4,7,10-tetraazacyclododecane-1,4,7-triyl)triacetate]	10 to 100
COc1cc2c(cc1-c1cccc(NC(=O)NCCNc3c(NCCNC(=O)CN4CCN(CC(=O)O)CCN(CC(=O)O)CCN(CC(=O)O)CC4)c(=O)c3=O)c1)-c1c(c(C(=O)N3CCOCC3(C)C)nn1-c1cc(Cl)cc(Cl)c1)CO2 [Compound 24, 2,2′,2″-(10-(2-((2-((2-((2-(3-(3-(1-(3,5-dichlorophenyl)-3-(3,3-dimethylmorpholine-4-carbonyl)-7-methoxy-1,4-dihydrochromeno|4,3-c|pyrazol-8-yl)phenyl)ureido)ethyl)amino)-3,4-dioxocyclobut-1-en-1-yl)amino)ethyl)amino)-2-oxoethyl)-1,4,7,10-tetraazacyclododecane-1,4,7-triyl)triacetic acid]	10 to 100
COCCOCCOCCOCCOCCOCCC(=O)N[C@H](CC(=O)N1CC2(CCCN2C(=O)CNC(=O)CN2CCN(CC(=O)O)CCN(CC(=O)O)CCN(CC(=O)O)CC2)C1)C(=O)Nc1cccc(-c2cc3c(cc2OC)OCc2c(C(=O)N4CCOCC4(C)C)nn(-c4cc(Cl)cc(Cl)c4)c2-3)c1 [Compound 25, (R)-2,2′,2″-(10-(2-((2-(2-(22-((3-(1-(3,5-dichlorophenyl)-3-(3,3-dimethylmorpholine-4-carbonyl)-7-methoxy-1,4-dihydrochromeno[4,3-c]pyrazol-8-yl)phenyl)carbamoyl)-20-oxo-2,5,8,11,14,17-hexaoxa-21-azatetracosan-24-oyl)-2,5-diazaspiro[3.4]octan-5-yl)-2-oxoethyl)amino)-2-oxoethyl)-1,4,7,10-tetraazacyclododecane-1,4,7-triyl)triacetic acid]	> 100
COc1cc2c(cc1-c1cccc(NC(=O)CN3CCN(CC(=O)O)CCN(CC(=O)O)CCN(CC(=O)O)CC3)c1)-c1c(c(C(=O)N3CCOCC3(C)C)nn1-c1cc(Cl)cc(Cl)c1)CO2 [Compound 29, 2,2′,2″-(10-(2-((3-(1-(3,5-dichlorophenyl)-3-(3,3-dimethylmorpholine-4-carbonyl)-7-methoxy-1,4-dihydrochromeno|4,3-c|pyrazol-8-yl)phenyl)amino)-2-oxoethyl)-1,4,7,10-tetraazacyclododecane-1,4,7-triyl)triacetic acid]	> 100
COc1cc2c(cc1-c1cccc(NC(=O)C[C@@H](NC(=O)CN3CCN(CC(=O)O)CCN(CC(=O)O)CCN(CC(=O)O)CC3)C(=O)O)c1)-c1c(c(C(=O)N3CCOCC3(C)C)nn1-c1cc(Cl)cc(Cl)c1)CO2 [Compound 30]	10 to 100
COc1cc2c(cc1-c1cccc(NC(=O)CC[C@@H](NC(=O)CN3CCN(CC(=O)O)CCN(CC(=O)O)CCN(CC(=O)O)CC3)C(=O)O)c1)-c1c(c(C(=O)N3CCOCC3(C)C)nn1-c1cc(Cl)cc(Cl)c1)CO2 [Compound 31]	10 to 100
COc1cc2c(cc1-c1cccc(NC(=O)CNC(=O)C[C@@H](NC(=O)CN3CCN(CC(=O)O)CCN(CC(=O)O)CCN(CC(=O)O)CC3)C(=O)O)c1)-c1c(c(C(=O)N3CCOCC3(C)C)nn1-c1cc(Cl)cc(Cl)c1)CO2 [Compound 32, (R)-2,2′,2″-(10-(2-((1-carboxy-3-((2-((3-(1-(3,5-dichlorophenyl)-3-(3,3-dimethylmorpholine-4-carbonyl)-7-methoxy-1,4-dihydrochromeno|4,3-clpyrazol-8-yl)phenyl)amino)-2-oxoethyl)amino)-3-oxopropyl)amino)-2-oxoethyl)-1,4,7,10-tetraazacyclododecane-1,4,7-triyl)triacetic acid]	10 to 100
COc1cc2c(cc1-c1cccc(NC(=O)[C@H](CS(=O)(=O)O)NC(=O)CN3CCN(CC(=O)O)CCN(CC(=O)O)CCN(CC(=O)O)CC3)c1)-c1c(c(C(=O)N3CCOCC3(C)C)nn1-c1cc(Cl)cc(Cl)c1)CO2 [Compound 33, (R)-2,2′,2″-(10-(2-((1-((3-(1-(3,5-dichlorophenyl)-3-(3,3-dimethylmorpholine-4-carbonyl)-7-methoxy-1,4-dihydrochromeno|4,3-c|pyrazol-8-yl)phenyl)amino)-1-oxo-3-sulfopropan-2-yl)amino)-2-oxoethyl)-1,4,7,10-tetraazacyclododecane-1,4,7-triyl)triacetic acid]	> 100

More lines, now with the values ahead:

EC50 [nM]	Structure (SMILES)
< 10	COc1cc2c(cc1-c1cccc(NC(=O)NCCNC(=O)[C@H](N)CCCCNC(=O)CN3CCN(CC(=O)O)CCN(CC(=O)O)CCN(CC(=O)O)CC3)c1)-c1c(c(C(=O)N3CCOCC3(C)C)nn1-c1cc(Cl)cc(Cl)c1)CO2 [Compound 23]
< 10	COc1cc2c(cc1-c1cccc(NC(=O)NCCNc3c(NCCNC(=O)CN4CCN(CC(=O)O)CCN(CC(=O)O)CCN(CC(=O)O)CC4)c(=O)c3=O)c1)-c1c(c(C(=O)N3CCOCC3(C)C)nn1-c1cc(Cl)cc(Cl)c1)CO2 [Compound 24A, indium (III) 2,2′,2″-(10-(2-((2-((2-((2-(3-(3-(1-(3,5-dichlorophenyl)-3-(3,3-dimethylmorpholine-4-carbonyl)-7-methoxy-1,4-dihydrochromeno[4,3-c]pyrazol-8-yl)phenyl)ureido)ethyl)amino)-3,4-dioxocyclobut-1-en-1-yl)amino)ethyl)amino)-2-oxoethyl)-1,4,7,10-tetraazacyclododecane-1,4,7-triyl)triacetate]
< 10	COc1cc2c(cc1-c1cccc(NC(=O)CCOCCOCCOCCOCCNC(=O)[C@@H](CS(=O)(=O)O)NC(=O)CN3CCN(CC(=O)O)CCN(CC(=O)O)CCN(CC(=O)O)CC3)c1)-c1c(c(C(=O)N3CCOCC3(C)C)nn1-c1cc(Cl)cc(Cl)c1)CO2 [Compound 26, (S)-2,2′,2″-(10-(21-((3-(1-(3,5-dichlorophenyl)-3-(3,3-dimethylmorpholine-4-carbonyl)-7-methoxy-1,4-dihydrochromeno[4,3-c]pyrazol-8-yl)phenyl)amino)-2,5,21-trioxo-4-(sulfomethyl)-9,12,15,18-tetraoxa-3,6-diazahenicosyl)-1,4,7,10-tetraazacyclododecane-1,4,7-triyl)triacetic acid]
< 10	COc1cc2c(cc1-c1cccc(NC(=O)CCOCCOCCOCCOCCNC(=O)[C@H](CS(=O)(=O)O)NC(=O)CN3CCN(CC(=O)O)CCN(CC(=O)O)CCN(CC(=O)O)CC3)c1)-c1c(c(C(=O)N3CCOCC3(C)C)nn1-c1cc(Cl)cc(Cl)c1)CO2 [Compound 26A, indium (III) (R)-2,2′,2″-(10-(21-((3-(1-(3,5-dichlorophenyl)-3-(3,3-dimethylmorpholine-4-carbonyl)-7-methoxy-1,4-dihydrochromeno[4,3-c]pyrazol-8-yl)phenyl)amino)-2,5,21-trioxo-4-(sulfomethyl)-9,12,15, 18-tetraoxa-3,6-diazahenicosyl)-1,4,7,10-tetraazacyclododecane-1,4,7-triyl)triacetate]
< 10	COc1cc2c(cc1-c1cccc(NC(=O)CCOCCOCCOCCOCCNC(=O)[C@@H](CCC(=O)O)NC(=O)CN3CCN(CC(=O)O)CCN(CC(=O)O)CCN(CC(=O)O)CC3)c1)-c1c(c(C(=O)N3CCOCC3(C)C)nn1-c1cc(Cl)cc(Cl)c1)CO2 [Compound 27, (R)-2,2′,2″-(10-(4-(2-carboxyethyl)-21-((3-(1-(3,5-dichlorophenyl)-3-(3,3-dimethylmorpholine-4-carbonyl)-7-methoxy-1,4-dihydrochromeno|4,3-clpyrazol-8-yl)phenyl)amino)-2,5,21-trioxo-9,12,15,18-tetraoxa-3,6-diazahenicosyl)-1,4,7,10-tetraazacyclododecane-1,4,7-triyl)triacetic acid]
< 10	COc1cc2c(cc1-c1cccc(NC(=O)CCOCCOCCOCCOCCNC(=O)CCC(C(=O)O)N3CCN(CC(=O)O)CCN(CC(=O)O)CCN(CC(=O)O)CC3)c1)-c1c(c(C(=O)N3CCOCC3(C)C)nn1-c1cc(Cl)cc(Cl)c1)CO2 (centres unmarked) [Compound 28]
